The assay has as its system L1210 leukemia ip in BDF1 mice, survival T/C. The assay is described as follows: NCI In Vivo Anticancer Drug Screen. Data for tumor model L1210 Leukemia (intraperitoneal) in B6D2F1 (BDF1) mice. Conditions: higher = longer survival. In short, it runs like this: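 In this screen, tumor-bearing mice given compound are compared to those given vehicle, and their survival values are reported as a treated-to-control quotient.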

Each structure is given as a SMILES string. Values joined by “and” are separate entries in the source; they are usually repeats but may differ in a detail not shown here. Equal entries are not always repeated. Toxic doses and inconclusive results are not listed. Peptide text beside a SMILES is read from it. * marks the point of attachment. Cbz = O=C(OCc1ccccc1)*; Bn = c1ccc(C*)cc1

Take `COc1cc(NS(C)(=O)=O)ccc1Nc1c2ccccc2nc2ccccc12`: the T/C runs as follows: (endpoint: mean survival time, dose: 0.25 mg/kg/injection, schedule: Q03HX008 (ip), vehicle: other) 120 % of control; (endpoint: mean survival time, dose: 0.38 mg/kg/injection, schedule: Q01DX009 (ip), vehicle: saline with Tween-80) 185 % of control; (endpoint: mean survival time, dose: 0.75 mg/kg/injection, schedule: Q01DX009 (sc), vehicle: saline) 118 % of control; (endpoint: mean survival time, dose: 1.0 mg/kg/injection, schedule: Q01DX009 (ip), vehicle: Klucel (hydroxypropylcellulose) (HPC)) 160 % of control; (endpoint: mean survival time, dose: 1.25 mg/kg/injection, schedule: Q01DX009 (sc), vehicle: saline) 112 % of control; (endpoint: mean survival time, dose: 1.35 mg/kg/injection, schedule: Q01DX009 (ip), vehicle: acetone) 151 % of control. Further, the T/C (endpoint: mean survival time, dose: 1.5 mg/kg/injection, schedule: Q01DX009 (sc), vehicle: saline) is 113 % of control; the T/C (endpoint: mean survival time, dose: 1.56 mg/kg/injection, schedule: Q01DX009 (ip), vehicle: saline with Tween-80) was 236 % of control; the T/C (endpoint: mean survival time, dose: 1.8 mg/kg/injection, schedule: Q01DX009 (ip), vehicle: water) is 150 % of control; the T/C (endpoint: mean survival time, dose: 1.9 mg/kg/injection, schedule: Q01DX001 (ip), vehicle: other) was 116 % of control; the T/C (endpoint: mean survival time, dose: 2.0 mg/kg/injection, schedule: Q03HX008 (ip), vehicle: other) was 203 % of control; the T/C (endpoint: mean survival time, dose: 2.05 mg/kg/injection, schedule: Q01DX009 (ip), vehicle: Klucel (hydroxypropylcellulose) (HPC)) was 155 % of control. The T/C reads like this: (endpoint: mean survival time, dose: 2.05 mg/kg/injection, schedule: Q01DX009 (ip), vehicle: acetone) 187 % of control; (endpoint: mean survival time, dose: 2.5 mg/kg/injection, schedule: Q01DX009 (sc), vehicle: saline) 110 % of control and 121 % of control; (endpoint: mean survival time, dose: 3.0 mg/kg/injection, schedule: Q01DX009 (ip), vehicle: Klucel (hydroxypropylcellulose) (HPC)) 176 % of control; (endpoint: mean survival time, dose: 3.0 mg/kg/injection, schedule: Q01DX009 (ip), vehicle: water) 174 % of control; (endpoint: mean survival time, dose: 3.0 mg/kg/injection, schedule: Q01DX009 (sc), vehicle: saline) 114 % of control; (endpoint: mean survival time, dose: 3.07 mg/kg/injection, schedule: Q01DX009 (ip), vehicle: Klucel (hydroxypropylcellulose) (HPC)) 157 % of control. Also, the T/C (endpoint: mean survival time, dose: 3.07 mg/kg/injection, schedule: Q01DX009 (ip), vehicle: acetone) is 188 % of control; the T/C (endpoint: mean survival time, dose: 3.12 mg/kg/injection, schedule: Q01DX009 (ip), vehicle: acetone) is 188 % of control; the T/C (endpoint: mean survival time, dose: 3.12 mg/kg/injection, schedule: Q01DX009 (ip), vehicle: saline with Tween-80) was 178 % of control and 216 % of control; the T/C (endpoint: mean survival time, dose: 3.75 mg/kg/injection, schedule: Q01DX001 (ip), vehicle: other) was 124 % of control; the T/C (endpoint: mean survival time, dose: 4.0 mg/kg/injection, schedule: Q01DX009 (ip), vehicle: Klucel (hydroxypropylcellulose) (HPC)) was 154 % of control; the T/C (endpoint: mean survival time, dose: 5.0 mg/kg/injection, schedule: Q01DX009 (ip), vehicle: saline with Tween-80) was 153 % of control. In addition, the T/C is 113 % of control (endpoint: mean survival time, dose: 5.0 mg/kg/injection, schedule: Q01DX009 (ip), vehicle: water); 123 % of control (endpoint: mean survival time, dose: 5.0 mg/kg/injection, schedule: Q01DX009 (sc), vehicle: saline); 150 % of control (endpoint: mean survival time, dose: 6.0 mg/kg/injection, schedule: Q01DX009 (ip), vehicle: Klucel (hydroxypropylcellulose) (HPC)); 186 % of control (endpoint: mean survival time, dose: 6.25 mg/kg/injection, schedule: Q01DX009 (ip), vehicle: acetone); 156 % of control (endpoint: mean survival time, dose: 7.5 mg/kg/injection, schedule: Q04DX003 (ip), vehicle: other); 91 % of control (endpoint: mean survival time, dose: 8.0 mg/kg/injection, schedule: Q01DX009 (ip), vehicle: other). Also, the T/C by setting is: (endpoint: mean survival time, dose: 8.4 mg/kg/injection, schedule: Q01DX009 (ip), vehicle: water) 89 % of control; (endpoint: mean survival time, dose: 10.0 mg/kg/injection, schedule: Q01DX009 (ip), vehicle: saline with Tween-80) 207 % of control; (endpoint: mean survival time, dose: 12.5 mg/kg/injection, schedule: Q01DX009 (ip), vehicle: acetone) 90 % of control; (endpoint: mean survival time, dose: 12.5 mg/kg/injection, schedule: Q01DX009 (ip), vehicle: saline with Tween-80) 93 % of control; (endpoint: mean survival time, dose: 12.5 mg/kg/injection, schedule: Q01DX009 (ip), vehicle: saline) 103 % of control; (endpoint: mean survival time, dose: 15.0 mg/kg/injection, schedule: Q04DX003 (ip), vehicle: other) 294 % of control. In addition, the T/C was 160 % of control (endpoint: mean survival time, dose: 18.75 mg/kg/injection, schedule: Q01DX001 (ip), vehicle: saline with Tween-80); 152 % of control (endpoint: mean survival time, dose: 25.0 mg/kg/injection, schedule: Q01DX001 (ip), vehicle: Klucel (hydroxypropylcellulose) (HPC)); 254 % of control (endpoint: mean survival time, dose: 30.0 mg/kg/injection, schedule: Q01DX001 (ip), vehicle: Klucel (hydroxypropylcellulose) (HPC)); 91 % of control (endpoint: mean survival time, dose: 30.0 mg/kg/injection, schedule: Q01DX001 (ip), vehicle: other); 178 % of control and 270 % of control (endpoint: mean survival time, dose: 37.5 mg/kg/injection, schedule: Q01DX001 (ip), vehicle: saline with Tween-80); 160 % of control (endpoint: mean survival time, dose: 45.0 mg/kg/injection, schedule: Q01DX001 (ip), vehicle: Klucel (hydroxypropylcellulose) (HPC)). Further, the T/C (endpoint: mean survival time, dose: 50.0 mg/kg/injection, schedule: Q01DX001 (ip), vehicle: saline) is 158 % of control and 175 % of control; the T/C (endpoint: mean survival time, dose: 60.0 mg/kg/injection, schedule: Q01DX001 (ip), vehicle: Klucel (hydroxypropylcellulose) (HPC)) was 160 % of control and 255 % of control; the T/C (endpoint: mean survival time, dose: 75.0 mg/kg/injection, schedule: Q01DX001 (ip), vehicle: saline) was 202 % of control and 236 % of control; the T/C (endpoint: mean survival time, dose: 150.0 mg/kg/injection, schedule: Q01DX001 (ip), vehicle: saline with Tween-80) was 232 % of control; the T/C (endpoint: median survival time, dose: 1.0 mg/kg/injection, schedule: Q01DX009 (sc), vehicle: other) was 121 % of control; the T/C (endpoint: median survival time, dose: 2.0 mg/kg/injection, schedule: Q01DX009 (oral), vehicle: other) was 102 % of control. In addition, the T/C is 109 % of control (endpoint: median survival time, dose: 4.0 mg/kg/injection, schedule: Q01DX009 (oral), vehicle: other); 120 % of control (endpoint: median survival time, dose: 8.0 mg/kg/injection, schedule: Q01DX009 (oral), vehicle: other); 98 % of control (endpoint: median survival time, dose: 8.0 mg/kg/injection, schedule: Q01DX009 (sc), vehicle: other).

On to `c1ccc(Nc2ccc3ccccc3c2)cc1`, for which the T/C was 97 % of control (endpoint: mean survival time, dose: 100.0 mg/kg/injection, schedule: Q01DX009 (ip), vehicle: saline with Tween-80); 92 % of control (endpoint: mean survival time, dose: 100.0 mg/kg/injection, schedule: Q04DX003 (ip), vehicle: saline with Tween-80); 89 % of control (endpoint: mean survival time, dose: 200.0 mg/kg/injection, schedule: Q01DX009 (ip), vehicle: saline with Tween-80); 98 % of control (endpoint: mean survival time, dose: 200.0 mg/kg/injection, schedule: Q04DX003 (ip), vehicle: saline with Tween-80); 92 % of control (endpoint: mean survival time, dose: 400.0 mg/kg/injection, schedule: Q01DX009 (ip), vehicle: saline with Tween-80); 98 % of control (endpoint: mean survival time, dose: 400.0 mg/kg/injection, schedule: Q04DX003 (ip), vehicle: saline with Tween-80).

For the compound `COC(=O)C(Cc1ccc(O)cc1)NC(=O)C(CSCc1ccccc1)NC(=O)OCc1ccccc1` (stereo unspecified) (Cbz-Cys(Bn)-Tyr-OMe; configuration not given here), the T/C runs as follows: (endpoint: mean survival time, dose: 100.0 mg/kg/injection, schedule: Q04DX003 (ip), vehicle: DMSO) 94 % of control; (endpoint: mean survival time, dose: 200.0 mg/kg/injection, schedule: Q04DX003 (ip), vehicle: DMSO) 98 % of control; (endpoint: mean survival time, dose: 400.0 mg/kg/injection, schedule: Q04DX003 (ip), vehicle: DMSO) 91 % of control.

As for `CCCCC[As](=O)(O)O`, the T/C (endpoint: mean survival time, dose: 1.5 mg/kg/injection, schedule: Q01DX001 (ip), vehicle: carboxymethylcellulose (CMC)) is 104 % of control; the T/C (endpoint: mean survival time, dose: 3.0 mg/kg/injection, schedule: Q01DX001 (ip), vehicle: carboxymethylcellulose (CMC)) was 102 % of control; the T/C (endpoint: mean survival time, dose: 6.0 mg/kg/injection, schedule: Q01DX001 (ip), vehicle: carboxymethylcellulose (CMC)) is 113 % of control.

In the case of `CN(C)C1c2ccccc2-c2cccc(C(=O)O)c21` (stereo unspecified), the T/C reads like this: (endpoint: mean survival time, dose: 100.0 mg/kg/injection, schedule: Q01DX001 (ip), vehicle: saline) 108 % of control; (endpoint: mean survival time, dose: 200.0 mg/kg/injection, schedule: Q01DX001 (ip), vehicle: saline) 103 % of control; (endpoint: mean survival time, dose: 400.0 mg/kg/injection, schedule: Q01DX001 (ip), vehicle: saline) 103 % of control.

For the origin of these results see PubChem BioAssay AID248 (DTP/NCI, 2004).
